Laboratory results from patent US7858621B2 (Amorepacific Corporation, priority 2006, dated 2010).

Molecular target: T1, vanilloid receptor (Rattus norvegicus, UniProt O35433)
T1 construct: DRG nerve cells from the primary culture of 2 days were equilibrated; endogenous in cells; host or cells: primary culture of dorsal root ganglion neurons from neonatal SD rats
Assay: 45Ca influx test in cultured neonatal rat DRG neurons, inhibition of capsaicin response
Type: cell-based
Details: neonatal rat DRG neurons, capsaicin 0.5 μM, 45Ca influx; read-out: Antagonist Calcium Uptake Test (IC50)
In short: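 Neonatal SD rat DRG neurons, cultured 2 days with NGF (200 ng/ml) and Ara-C, were washed in HEPES (10 mM, pH 7.4)-buffered Ca/Mg-free HBSS. Test compound was added with capsaicin (final 0.5 μM) and 45Ca (10 μCi/ml) for 10 min at room temperature; 45Ca uptake counted by scintillation after SDS elution.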

T1 sequence (O35433 whole entry): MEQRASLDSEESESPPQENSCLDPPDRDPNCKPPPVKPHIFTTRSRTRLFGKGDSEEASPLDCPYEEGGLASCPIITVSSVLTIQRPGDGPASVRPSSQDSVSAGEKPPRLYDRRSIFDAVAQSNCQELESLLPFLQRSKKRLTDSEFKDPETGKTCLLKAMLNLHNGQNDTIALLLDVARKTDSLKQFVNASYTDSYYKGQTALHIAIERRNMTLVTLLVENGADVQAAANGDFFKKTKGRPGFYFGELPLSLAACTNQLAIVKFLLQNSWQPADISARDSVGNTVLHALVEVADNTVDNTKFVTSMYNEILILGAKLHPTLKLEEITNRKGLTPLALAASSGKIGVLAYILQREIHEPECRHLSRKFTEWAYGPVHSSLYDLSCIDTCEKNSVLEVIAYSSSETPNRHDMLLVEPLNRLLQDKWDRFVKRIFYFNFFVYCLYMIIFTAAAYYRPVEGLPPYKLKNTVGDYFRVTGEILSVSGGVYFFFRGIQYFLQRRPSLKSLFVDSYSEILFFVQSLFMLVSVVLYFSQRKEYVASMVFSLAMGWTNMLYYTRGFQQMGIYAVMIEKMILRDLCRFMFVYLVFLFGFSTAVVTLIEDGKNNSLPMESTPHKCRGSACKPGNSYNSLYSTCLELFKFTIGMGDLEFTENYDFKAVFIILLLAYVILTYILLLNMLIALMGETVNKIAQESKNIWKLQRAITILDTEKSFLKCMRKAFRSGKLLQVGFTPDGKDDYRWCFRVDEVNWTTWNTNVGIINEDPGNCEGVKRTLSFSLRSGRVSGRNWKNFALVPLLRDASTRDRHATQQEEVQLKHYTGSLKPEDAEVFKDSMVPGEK

Structure (SMILES)	IC50
CCNc1nc(C(F)(F)F)ccc1/C=C/C(=O)NCc1cc(F)c(NS(C)(=O)=O)c(C#N)c1 [Example 259, N-(3-Cyano-5-fluoro-4-methanesulfonylamino-benzyl)-3-(2-ethylamino-6-trifluoromethyl-pyridin-3-yl)-acrylamide]	190 nM
C=Cc1cc(CNC(=O)/C=C/c2ccc(C(F)(F)F)nc2N2CCOCC2)ccc1NS(C)(=O)=O [Example 6, N-(4-Methanesulfonylamino-3-vinyl-benzyl)-3-(2-morpholin-4-yl-6-trifluoromethyl-pyridin-3-yl)-acrylamide]	300 nM
C#Cc1cc(CNC(=O)/C=C/c2ccc(C(F)(F)F)nc2Oc2cccnc2)cc(F)c1NS(C)(=O)=O [Example 134, N-(3-Ethynyl-5-fluoro-4-methanesulfonylamino-benzyl)-3-[2-(pyridin-3-yloxy)-6-trifluoromethyl-pyridin-3-yl]-acrylamide]	2600 nM
C#Cc1cc(CNC(=O)C=Cc2ccc(C(F)(F)F)nc2C#C)cc(F)c1NS(C)(=O)=O [Example 145, N-(3-Ethynyl-5-fluoro-4-methanesulfonylamino-benzyl)-3-(2-ethynyl-6-trifluoromethyl-pyridin-3-yl)-acrylamide]	1900 nM
CS(=O)(=O)Nc1ccc(CNC(=O)/C=C/c2ccc(Cl)nc2)cc1F [Examples 16]	> 10000 nM
CCC(C)Nc1nc(C(F)(F)F)ccc1/C=C/C(=O)NCc1ccc(NS(C)(=O)=O)c(C)c1 (stereo not drawn) [Example 176, 3-(2-sec-Butylamino-6-trifluoromethyl-pyridin-3-yl)-N-(4-methanesulfonylamino-3-methyl-benzyl)-acrylamide]	57 nM
CCCc1nc(C(F)(F)F)ccc1/C=C/C(=O)NCc1cc(F)c(NS(C)(=O)=O)c(F)c1 [Example 207, N-(3,5-Difluoro-4-methanesulfonylamino-benzyl)-3-(2-propyl-6-trifluoromethyl-pyridin-3-yl)-acrylamide]	140 nM
CS(=O)(=O)Nc1ccc(CNC(=O)/C=C/c2ccc(C(F)(F)F)nc2N2CCOCC2)cc1F [Example 5, N-(3-Fluoro-4-methanesulfonylamino-benzyl)-3-(2-morpholin-4-yl-6-trifluoromethyl-pyridin-3-yl)-acrylamide]	1500 nM
CC(C)Nc1nc(C(F)(F)F)ccc1/C=C/C(=O)N[C@H](C)c1cc(F)c(NS(C)(=O)=O)c(F)c1 [Example 227, (R)—N-[1-(3,5-Difluoro-4-methanesulfonylamino-phenyl)-ethyl]-3-(2-isopropylamino-6-trifluoromethyl-pyridin-3-yl)-acrylamide]	19 nM
C=CS(=O)(=O)Nc1ccc(CNC(=O)/C=C/c2ccc(C(F)(F)F)nc2CCc2ccccc2)cc1 [Example 268, N-(4-Ethenesulfonylamino-benzyl)-3-(2-phenethyl-6-trifluoromethyl-pyridin-3-yl)-acrylamide]	2900 nM
C#Cc1cc(CNC(=O)/C=C/c2ccc(C(F)(F)F)nc2Nc2ccccc2)cc(F)c1NS(C)(=O)=O [Example 113, N-(3-Ethynyl-5-fluoro-4-methanesulfonylamino-benzyl)-3-(2-phenylamino-6-trifluoromethyl-pyridin-3-yl)-acrylamide]	270 nM
C#Cc1cc(CNC(=O)/C=C/c2ccc(C(F)(F)F)nc2N(C)C)cc(F)c1NS(C)(=O)=O [Example 94, 3-(2-Dimethylamino-6-trifluoromethyl-pyridin-3-yl)-N-(3-ethynyl-5-fluoro-4-methanesulfonylamino-benzyl)-acrylamide]	590 nM
COC1CCN(c2nc(C(F)(F)F)ccc2C=CC(=O)NCc2ccc(NS(C)(=O)=O)c(F)c2)C1 (stereo not drawn) [Example 90, N-(3-Fluoro-4-methanesulfonylamino-benzyl)-3-[2-(3-methoxy-pyrrolidin-1-yl)-6-trifluoromethyl-pyridin-3-yl]-acrylamide]	410 nM
CCCCNc1nc(C(F)(F)F)ccc1/C=C/C(=O)NCc1ccc(NS(C)(=O)=O)c(F)c1 [Example 88, 3-(2-Butylamino-6-trifluoromethyl-pyridin-3-yl)-N-(3-fluoro-4-methanesulfonylamino-benzyl)-acrylamide]	400 nM

Further lines, results first:

IC50	Structure (SMILES)
270 nM	C#Cc1cc(CNC(=O)/C=C/c2ccc(C(F)(F)F)nc2-c2ccsc2)cc(F)c1NS(C)(=O)=O [Example 119, N-(3-Ethynyl-5-fluoro-4-methanesulfonylamino-benzyl)-3-(2-thien-3-yl-6-trifluoromethyl-pyridin-3-yl)-acrylamide]
400 nM	Cc1cc(CNC(=O)/C=C/c2ccc(C(F)(F)F)nc2-c2cccc(F)c2)ccc1NS(C)(=O)=O [Example 182, 3-[2-(3-Fluoro-phenyl)-6-trifluoromethyl-pyridin-3-yl]-N-(4-methanesulfonylamino-3-methyl-benzyl)-acrylamide]
210 nM	C#Cc1cc(CNC(=O)/C=C/c2ccc(C(C)(C)C)nc2N2CCOCC2)cc(F)c1NS(C)(=O)=O [Example 59, 3-(6-tert-Butyl-2-morpholin-4-yl-pyridin-3-yl)-N-(3-ethynyl-5-fluoro-4-methanesulfonylamino-benzyl)-acrylamide]
900 nM	CS(=O)(=O)Nc1c(F)cc(CNC(=O)/C=C/c2ccc(C(F)(F)F)nc2-c2cccc(F)c2)cc1C#N [Example 136, N-(3-Cyano-5-fluoro-4-methanesulfonylamino-benzyl)-3-[2-(3-fluoro-phenyl)-6-trifluoromethyl-pyridin-3-yl]-acrylamide]
3800 nM	CC(C)(C)c1ccc(OCC(=O)NCc2ccc(NS(C)(=O)=O)c(F)c2)c(Cl)n1 [Example 30, 2-(6-tert-Butyl-2-chloro-pyridin-3-yloxy)-N-(3-fluoro-4-methanesulfonylamino-benzyl)-acetamide]
42 nM	CCCCc1nc(C(F)(F)F)ccc1/C=C/C(=O)N[C@H](C)c1ccc(NS(C)(=O)=O)c(F)c1 [Example 193, (R)-3-(2-Butyl-6-trifluoromethyl-pyridin-3-yl)-N-[1-(3-fluoro-4-methanesulfonylamino-phenyl)-ethyl]-acrylamide]
41 nM	CC(C)c1nc(C(F)(F)F)ccc1/C=C/C(=O)N[C@H](C)c1ccc(NS(C)(=O)=O)c(F)c1 [Example 234, (R)—N-[1-(3-Fluoro-4-methanesulfonylamino-phenyl)-ethyl]-3-(2-isopropyl-6-trifluoromethyl-pyridin-3-yl)-acrylamide]
16 nM	CCCNc1nc(C(F)(F)F)ccc1/C=C/C(=O)N[C@H](C)c1ccc(NS(C)(=O)=O)c(F)c1 [Example 224, (R)—N-[1-(3-Fluoro-4-methanesulfonylamino-phenyl)-ethyl]-3-(2-propylamino-6-trifluoromethyl-pyridin-3-yl)-acrylamide]
340 nM	C#Cc1cc(CNC(=O)/C=C/c2ccc(C(F)(F)F)nc2Sc2ccccc2)cc(F)c1NS(C)(=O)=O [Example 139, N-(3-Ethynyl-5-fluoro-4-methanesulfonylamino-benzyl)-3-(2-phenylthio-6-trifluoromethyl-pyridin-3-yl)-acrylamide]
510 nM	C#Cc1cc(CNC(=O)/C=C/c2ccc(C(F)(F)F)nc2-c2ccccc2)cc(F)c1NS(C)(=O)=O [Example 107, N-(3-Ethynyl-5-fluoro-4-methanesulfonylamino-benzyl)-3-(2-phenyl-6-trifluoromethyl-pyridin-3-yl)-acrylamide]
1300 nM	C#Cc1cc(CNC(=O)/C=C/c2ccc(C(F)(F)F)nc2C)cc(F)c1NS(C)(=O)=O [Example 68, N-(3-Ethynyl-5-fluoro-4-methanesulfonylaminobenzyl)-3-(2-methyl-6-trifluoromethylpyridin-3-yl)acrylamide]
1200 nM	CCCCc1nc(C(F)(F)F)ccc1C#CC(=O)N[C@H](C)c1ccc(NS(C)(=O)=O)c(F)c1 [Example 274, 3-(2-Butyl-6-trifluoromethyl-pyridin-3-yl)-propynoic acid [1-(3-fluoro-4-methane sulfonylamino-phenyl)-ethyl]-amide]
11900 nM	CS(=O)(=O)Nc1ccc(CNC(=O)/C=C/c2ccc(C(F)(F)F)nc2Oc2cccnc2)cc1F [Example 81, N-(3-Fluoro-4-methanesulfonylamino-benzyl)-3-[2-(pyridin-3-yloxy)-6-trifluoromethyl-pyridin-3-yl]-acrylamide]
200 nM	Cc1cc(CNC(=O)/C=C/c2ccc(C(F)(F)F)nc2CCc2ccccc2)cc(F)c1NS(C)(=O)=O [Example 173, N-(3-Fluoro-4-methanesulfonylamino-5-methyl-benzyl)-3-(2-phenethyl-6-trifluoromethyl-pyridin-3-yl)-acrylamide]
55 nM	CCCNc1nc(C(F)(F)F)ccc1/C=C/C(=O)NCc1cc(C)c(NS(C)(=O)=O)c(F)c1 [Example 223, N-(3-Fluoro-4-methanesulfonylamino-5-methyl-benzyl)-3-(2-propylamino-6-trifluoromethyl-pyridin-3-yl)-acrylamide]
23 nM	C#Cc1cc(CNC(=O)/C=C/c2ccc(C(F)(F)F)nc2NCCC)cc(F)c1NS(C)(=O)=O [Example 221, N-(3-Ethynyl-5-fluoro-4-methanesulfonylamino-benzyl)-3-(2-propylamino-6-trifluoromethyl-pyridin-3-yl)-acrylamide]
510 nM	CCCSc1nc(C(F)(F)F)ccc1/C=C/C(=O)NCc1ccc(NS(C)(=O)=O)c(C)c1 [Example 186, N-(4-Methanesulfonylamino-3-methyl-benzyl)-3-(2-propylthio-6-trifluoromethyl-pyridin-3-yl)-acrylamide]
> 10000 nM	C#Cc1cc(CNC(=O)COc2ccc(Cl)nc2)cc(F)c1NS(C)(=O)=O [Example 35, 2-(6-Chloro-pyridin-3-yloxy)-N-(3-ethynyl-5-fluoro-4-methanesulfonylamino-benzyl)-acetamide]
> 10000 nM	C#Cc1cc(CNC(=O)/C=C/c2ccc(Cl)nc2)cc(F)c1NS(C)(=O)=O [Example 14, 3-(6-Chloro-pyridin-3-yl)-N-(3-ethynyl-5-fluoro-4-methanesulfonylamino-benzyl)-acrylamide]
